Test results as given in patent publication US20140087007A1, “BOWEL CLEANSING PREPARATIONS” (Braintree Laboratories, Inc., priority 2012, published 2014).

Test system: colon (colonic purgation)
Experiment: Stool output of normal volunteers after one amount of laxative, bowel movements collected 24 hours
Assay type: in vivo, human
Settings: 20 mg, 24 hours collection
Description: The sulfate salt solutions such as those described herein were investigated for their efficacy as colon debulking agents because bisacodyl has been associated with reports of abdominal cramping. Four different solutions were prepared with varying amounts of sodium, magnesium, and potassium sulfate salts and each containing a total sulfate amount of 125 mM.
These included bisacodyl (20 mg), a PEG and balanced electrolyte isotonic preparation (NuLYTELY®, (2 L or 4 L) or HalfLytely®+Bisacodyl Bowel Prep Kit, (2 L PEG and electrolytes and 10 mg bisacodyl). Bowel movements and urine were collected for 24 hours. The stool output of the subjects were compared and evaluated for movement of electrolytes between the solution and the subject.
The results measured were mean stool volume output and are shown below in Table 2 using non-sulfate laxatives and in Table 3 using sulfate laxatives.

`CC(=O)Oc1ccc(C(c2ccc(OC(C)=O)cc2)c2ccccn2)cc1` [Bisacodyl, bisacodyl] was tested, and the “% Solids (stool)” value was 50.4% and the “Output (mean stool volume output)” value was 757 g.
